Earlier results, collected in PMC12128972, “TYRA-300, an FGFR3-selective inhibitor, promotes bone growth in two FGFR3-driven models of chondrodysplasia” (JCI Insight, 2025).

What was measured:
[1] = tested on: Fgfr3^Y367C/+ mouse model, which mimics the phenotype of ACH; design: method as in PMID 27064282, PMID 23200862; conditions: infigratinib 2 mg/kg, starting at 7 days of age for 10 days; cited from earlier work
[2] = tested on: growth plate chondrocytes of Fgfr3^Y367C/+ mice; conditions: previous studies; cited from earlier work
[3] = tested on: Fgfr3^G374R mouse model of ACH; conditions: treatment initiated 1 day after birth; cited from earlier work
children with ACH = tested on: children with ACH; design: method as in earlier work; conditions: children with ACH aged 5-12 years, once daily s.c.; 95% CI 1.22-1.97; cited from earlier work

## CCN1CCN(c2ccc(Nc3cc(N(C)C(=O)Nc4c(Cl)c(OC)cc(OC)c4Cl)ncn3)cc2)CC1 [infigratinib]
[1]
  bone growth compared with vosoritide (800 μg/kg): more bone growth than vosoritide
[2]
  type X collagen staining in the HZCs: partial restoration
[3]
  premature fusion of the intersphenoidal synchondrosis: did not rescue premature fusion

## vosoritide: C-natriuretic peptide (CNP) analog that is a once daily subcutaneous injection (PGQEHPNARKYKGANKKGLSKGCFGLKLDRIGSMSGLGC; chains of the INN, looked up)
Children with ACH
  increase from baseline of average linear growth velocity greater than placebo: 1.57 cm/year
[2]
  type X collagen staining in the HZCs: partial restoration
